Measured values reported in US20230107216A1, “PANTETHEINE DERIVATIVES AND USES THEREOF” (Comet Therapeutics, Inc., priority 2018, published 2023).
Read-outs that look alike come from different tables or passages of the source.

Assays:
[1] = tested on: Peripheral blood mononuclear cells co-cultured with B-cells (BT system)
[2] = tested on: Bronchial epithelial cells co-cultured with dermal fibroblast (BF4T system); experiment: BioMAP BF4T system (TNFα and IL-4); format: cell-based, human; settings: for activation at 10 µM / activation at 1 µM: Homo sapiens, 24 h, read-out: % increase in VCAM-1
[3] = tested on: Methylmalonic Acidemia (MMA) primary fibroblasts GM01673; experiment: Mitochondrial respiration, XFe96 Extracellular Flux Analyzer (OCR/ECAR), MMA fibroblasts GM01673; format: cell-based; settings: Homo sapiens, Fibroblast
Procedure, shortened: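 Primary fibroblasts (20000 cells/well) were held 24 h in supplemented DMEM before Seahorse OCR/ECAR profiling. Compounds at 10 to 50 μM or 0.1% DMSO were injected after baseline, then oligomycin 1 μg/ml, FCCP, and rotenone/antimycin A 0.5 μM. Values were normalized to Hoechst nuclear counts, baselined to pre-compound, and expressed relative to vehicle.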

[4] = 10 uM, procedure of Example 829
[5] = 10 uM, procedure of Example 830
[6] = assay condition D (1 mM glucose, 10% FBS), read-out: Increase in Maximal Respiratory Capacity AUC
[7] = assay condition A (10 mM glucose, 2 mM L-glutamine, 1 mM pyruvate, 10% FBS), read-out: Increase in Maximal Respiratory Capacity AUC

CC(=O)SCCNC(=O)CCNC(=O)[C@H](O)C(C)(C)COC(=O)[C@@H](N)Cc1ccc(O)c(O)c1 [Compound 498, (3R)-3-[(2-[[2-(acetylsulfanyl)ethyl]carbamoyl]ethyl)carbamoyl]-3-hydroxy-2,2-dimethylpropyl (2S)-2-amino-3-(3,4-dihydroxyphenyl)propanoate]
% increase in sTNFα ([1]; 1 uM, procedure of Example 829): ≥10%
% increase in sIL-2 [1, 4]: ≥20%
% increase in 1L-8 ([2]; 1 uM, procedure of Example 830): ≥10%
% increase in MCP-1 ([2]; 1 uM, procedure of Example 830): ≥10%
% decrease in IL-1α ([2]; 10 uM): ≥10%
% increase in Eotaxin-3 [2, 5]: ≥10%
% increase in MMP-9 [2, 5]: ≥10%
activation at 10 µM [2, 5]: ≥ 10%

CC(C)(CO)[C@@H](O)C(=O)NCCC(=O)NCCSC(=O)CC(=O)CCC(=O)O [Compound 2, 6-[(2-[3-[(2R)-2,4-dihydroxy-3,3-dimethylbutanamido]propanamido]ethyl)sulfanyl]-4,6-dioxohexanoic acid]
activation at 10 µM ([3]; assay condition D (1 mM glucose, 10% FBS), read-out: Increase in Spare Capacity AUC): ≥ 50%

COC(=O)CC(C(C)=O)C(=O)SCCNC(=O)CCNC(=O)[C@H](O)C(C)(C)CO (stereo partly shown) [Compound 410]
activation at 50 µM ([3]; assay condition A (10 mM glucose, 2 mM L-glutamine, 1 mM pyruvate, 10% FBS), 50 μM, read-out: Increase in Spare Capacity AUC): ≥ 10%

COC(=O)CCC(=O)SCCNC(=O)CCNC(=O)[C@H](OC(=O)CN)C(C)(C)CO [Compound 1294, methyl 4-[(2-[3-[(2R)-2-[(2-aminoacetyl)oxy]-4-hydroxy-3,3-dimethylbutanamido]propanamido]ethyl)sulfanyl]-4-oxobutanoate]
% increase in B-cell Proliferation ([1]; 1 uM, procedure of Example 829): ≥10%
% decrease in sIL-2 [1, 4]: ≥10%
% decrease in tPA [2, 5]: ≥10%

C[C@@H](O)CC(=O)CC(=O)SCCNC(=O)CCNC(=O)[C@H](O)C(C)(C)CO [Compound 42, (2R)-2,4-dihydroxy-N-[2-[(2-[[(5R)-5-hydroxy-3-oxohexanoyl]sulfanyl]ethyl)carbamoyl]ethyl]-3,3-dimethylbutanamide]
% increase in sIL-2 [1, 4]: ≥10%
% increase in sTNFα [1, 4]: ≥10%
% decrease in IL-1α ([2]; 10 uM): ≥10%
% increase in Eotaxin-3 [2, 5]: ≥10%
% increase in MMP-3 [2, 5]: ≥10%
% increase in keratin 8/18 [2, 5]: ≥10%
activation at 10 µM [2, 5]: ≥ 10%

CC(C)(CO)[C@@H](O)C(=O)NCCC(=O)NCCSC(=O)CCCN [Compound 370, (2R)—N-[2-([2-[(4-aminobutanoyl)sulfanyl]ethyl]carbamoyl)ethyl]-2,4-dihydroxy-3,3-dimethylbutanamide]
activation at 10 µM [3, 6]: ≥ 10%

CC(=O)SCCNC(=O)CCNC(=O)[C@H](O)C(C)(C)COC(=O)[C@H](C)N [Compound 502, (3R)-3-[(2-[[2-(acetylsulfanyl)ethyl]carbamoyl]ethyl)carbamoyl]-3-hydroxy-2,2-dimethylpropyl (2S)-2-aminopropanoate]
activation at 10 µM [3, 7]: ≥ 10%
% decrease in IL-1α ([2]; 10 uM): ≥10%
activation at 1 µM ([2]; 1 uM, procedure of Example 830): ≥ 10%

COC(=O)CC(SCCNC(=O)CCNC(=O)[C@H](O)C(C)(C)COC(C)=O)C(=O)OC (stereo partly drawn) [Compound 149, 1,4-dimethyl 2-[(2-[3-[(2R)-4-(acetyloxy)-2-hydroxy-3,3-dimethylbutanamido]propanamido]ethyl)sulfanyl]butanedioate]
% increase in sIL-2 [1, 4]: ≥20%
% increase in sTNFα [1, 4]: ≥10%
activation at 10 µM [3, 6]: ≥ 10%
% decrease in MMP-9 ([2]; 1 uM, procedure of Example 830): ≥10%
% increase in Eotaxin-3 [2, 5]: ≥10%
activation at 10 µM [2, 5]: ≥ 10%

COC(=O)CCC(=O)SCCNC(=O)CCNC(=O)[C@H](O)C(C)(C)COC(C)=O [Compound 138]
% decrease in sIL-2 ([1]; 1 uM, procedure of Example 829): ≥10%
% decrease in sTNFα ([1]; 1 uM, procedure of Example 829): ≥20%

CC(C)(CO)[C@@H](O)C(=O)NCCC(=O)NCCSC(CC(=O)OCC[N+](C)(C)C)C(=O)O (stereo partly drawn) [Compound 51, [2-([3-carboxy-3-[(2-[3-[(2R)-2,4-dihydroxy-3,3-dimethylbutanamido]propanamido]ethyl)sulfanyl]propanoyl]oxy)ethyl]trimethylazanium]
activation at 10 µM [3, 6]: ≥ 10%

COC(=O)CCC(=O)SCCNC(=O)CCNC(=O)[C@H](OC(=O)CNC(C)=O)C(C)(C)CO [Compound 1298, methyl 4-[(2-[3-[(2R)-2-[(2-acetamidoacetyl)oxy]-4-hydroxy-3,3-dimethylbutanamido]propanamido]ethyl)sulfanyl]-4-oxobutanoate]
% increase in B-cell Proliferation ([1]; 1 uM, procedure of Example 829): ≥10%
% increase in sIL-17 ([1]; 1 uM, procedure of Example 829): ≥20%
% decrease in sTNFα [1, 4]: ≥10%
activation at 10 µM [2, 5]: ≥ 10%

CC(=O)OCC(C)(C)[C@@H](OC(C)=O)C(=O)NCCC(=O)NCCSC(C)=O [Compound 1264, (1R)-3-(acetyloxy)-1-[(2-[[2-(acetylsulfanyl)ethyl]carbamoyl]ethyl)carbamoyl]-2,2-dimethylpropyl acetate]
% decrease in sTNFα [1, 4]: ≥10%
% increase in B-cell Proliferation [1, 4]: ≥10%
activation at 1 µM ([2]; 1 uM, procedure of Example 830): ≥ 10%

CC(C)(CO)[C@@H](O)C(=O)NCCC(=O)NCCSC(=O)[C@@H](N)Cc1ccc(O)c(O)c1 [Compound 371, (2R)—N-[2-[(2-[[(2S)-2-amino-3-(3,4-dihydroxyphenyl)propanoyl]sulfanyl]ethyl)carbamoyl]ethyl]-2,4-dihydroxy-3,3-dimethylbutanamide]
% increase in sIL-2 ([1]; 1 uM, procedure of Example 829): ≥20%
% increase in PBMC cytotoxicity ([1]; human, 72 h, 10 µM): ≥10%
activation at 10 µM [3, 6]: ≥ 10%
% increase in MCP-1 ([2]; 1 uM, procedure of Example 830): ≥10%
% increase in MMP-9 ([2]; 1 uM, procedure of Example 830): ≥10%
% increase in Eotaxin-3 [2, 5]: ≥10%
activation at 1 µM ([2]; 1 uM, procedure of Example 830): ≥ 10%

CCCCCCC(=O)SCCNC(=O)CCNC(=O)[C@H](O)C(C)(C)CO [Compound 372, (2R)—N-(2-[[2-(heptanoylsulfanyl)ethyl]carbamoyl]ethyl)-2,4-dihydroxy-3,3-dimethylbutanamide]
% increase in sIL-2 ([1]; 1 uM, procedure of Example 829): ≥10%
% increase in sIL-17 [1, 4]: ≥20%
activation at 10 µM ([3]; assay condition A (10 mM glucose, 2 mM L-glutamine, 1 mM pyruvate, 10% FBS), read-out: Increase in Spare Capacity AUC): ≥ 10%
activation at 1 µM ([2]; 1 uM, procedure of Example 830): ≥ 10%

CC(C)(COC(=O)OCC[N+](C)(C)C)[C@@H](O)C(=O)NCCC(=O)NCCSC(=O)CCC(=O)O [Compound 116, [2-([[(3R)-3-[[2-([2-[(3-carboxypropanoyl)sulfanyl]ethyl]carbamoyl)ethyl]carbamoyl]-3-hydroxy-2,2-dimethylpropoxy]carbonyl]oxy)ethyl]trimethylazanium]
% decrease in B-cell proliferation ([1]; 1 uM, procedure of Example 829): ≥10%
% decrease in sTNFα [1, 4]: ≥10%
% increase in MMP-3 ([2]; 1 uM, procedure of Example 830): ≥10%
% increase in keratin 8/18 ([2]; 1 uM, procedure of Example 830): ≥10%
% decrease in IL-1α ([2]; 10 uM): ≥10%
activation at 10 µM [2, 5]: ≥ 10%

CC(C)(CO)[C@@H](O)C(=O)NCCC(=O)NCCSC(=O)CCCO [Compound 1304, (2R)-2,4-dihydroxy-N-[2-([2-[(4-hydroxybutanoyl)sulfanyl]ethyl]carbamoyl)ethyl]-3,3-dimethylbutanamide]
activation at 10 µM [3, 7]: ≥ 10%
